# Assay results from patent publication US7795206B2, “Peptide that inhibits janus kinase” (YM Biosciences Australia Pty Ltd, priority 2001, dated 2010).
# Key:
# [1] = test system: wild-type Ba/F3 cells grown upon IL-3; experiment: Ba/F3 proliferation assay (IL-3 dependent growth, MTT); type: cell-based, murine; conditions: peptide 1 μM to 100 μM in PBS; cell number after three days by MTT assay; FIG. 5
# Description: FIG. 5. Ba/F3 cell assay: Inhibition of the growth of the IL-3 dependent growth of Ba/F3 cells has been brought about by the addition of a peptide derived from JAK2 PSL. PSLShort PAEFMRMI (SEQ ID NO:15) and PSLControl SPSKFRMPEAMIGND (SEQ ID NO:16) were added at concentrations ranging from IμM to 100 μM in phosphate buffered saline. Cell number after three days was measured by an MTT assay.
# These peptides were tested for biological activity by means of a proliferation assay using the murine growth factor dependent hematopoietic cell line Ba/F3. On the basis of our hypothesis of the role of how the PSL region might work, we reasoned that if these peptides were to supplant the PSL from the KLD of JAK2, then the JAK PTK activity would thereby either become unregulated, resulting in a IL-3 independent growth phenotype, or the normal IL-3 dependent growth of these cells would be inhibited. […] We hypothesize that the activity of the PSLshort peptide was dependent upon the presence of the JAK2 KLD, and conclude that its mode of action is by displacement of the PSL of JAK2 from the JAK2 KLD, resulting in unprimed JAK2 molecules that cannot be triggered by IL-3. […]
# The murine hematopoietic cell line Ba/F3 was grown in the presence of IL-3. […] Cell number after three days was measured by an MTT assay.
# [2] = test system: Ba/F3 cells transformed to factor independence by ectopic expression of TEL/JAK2 fusion; experiment: Ba/F3 proliferation assay, cells transformed to factor independence by TEL/JAK2; type: cell-based, murine; conditions: oncogenic JAK2 (PTK domain fused to PNT domain of TEL); FIG. 5
sequence,measurement,setting,value
PAEFMRMI (homo sapiens) [PSLshort],inhibition of growth of wild-type Ba/F3 cells grown upon IL-3,[1],able to inhibit growth
same,inhibition of growth of Ba/F3 cells transformed to factor independence by TEL/JAK2,[2],unable to inhibit
